Experiments:
[1] = cited from earlier work
[2] = Miscibility of diclofenac sodium and capsaicin liquid solutions
Protocol: The table below includes the compositions of 7 completely miscible and transparent diclofenac sodium and capsaicin liquid solutions that were prepared.
It is evident that alcohols (ethyl alcohol and/or ethoxydiglycol) are required to effect the solubility of Diclofenac salts within the oil based ingredients of the capsaicin vehicles.

[3] = Diclofenac sodium solubility studies in solvents; format: physicochemical; conditions: for DICLOFENAC SODIUM SOLUBILITY: 2 wt. % Diclofenac Sodium
Protocol: All solubility samples were prepared in 20 gram sample size. The ingredients of each test samples were weighed to the nearest 0.01 grams. The 20 gram samples were mixed in 50 cc Pyrex glass beakers.
All solubility studies were performed with “Diclofenac Sodium Salt” obtained from Sigma Aldrich, St. Louis, Mo. (CAS #15307-79-6; Sigma-Aldrich Catalog No. D6899; Lot # BCBB7312; M.P. 275-277° C.)
The ingredients were thoroughly mixed at ambient temperatures ranging from 75° F. to 80° F.

pain threshold = conditions: in vivo; cited from earlier work
nasal airway resistance = conditions: intranasal use, cited from earlier work
[4] = Solubility of nonivamide / capsaicin in methyl salicylate
blood flow = conditions: […] gel, topical, cited from earlier work

CCO [Ethyl Alcohol]
Aqueous Soluble. [1]: miscible | Oil Soluble [1]: soluble

O=C([O-])Cc1ccccc1Nc1c(Cl)cccc1Cl.[Na+] [Diclofenac Sodium]
concentration with complete solubility/miscibility in the ethyl alcohol capsaicin vehicle [2]: < 2 wt. % | DICLOFENAC SODIUM SOLUBILITY ([3]; Sample 1: 98 wt. % Methyl Salicylate, ambient 75-80° F.): Sparingly Soluble/Insoluble | DICLOFENAC SODIUM SOLUBILITY ([3]; Sample 2: 50 wt. % Methyl Salicylate, 15 wt. % Menthol, 11 wt. % Camphor, 1.5 wt. % Phenol, 20.5 wt. % Macadamia Nut Oil): Sparingly Soluble/Insoluble | DICLOFENAC SODIUM SOLUBILITY ([3]; Sample 3: 98 wt. % Ethyl Alcohol): ^(10)Completely Soluble | DICLOFENAC SODIUM SOLUBILITY ([3]; Sample 4: 98 wt. % Transcutol): ^(10)Completely Soluble | DICLOFENAC SODIUM SOLUBILITY ([3]; Sample 5: 88 wt. % Methyl Salicylate, 10 wt. % Ethyl Alcohol): ^(10)Completely Soluble | DICLOFENAC SODIUM SOLUBILITY ([3]; Sample 6: 50 wt. % Methyl Salicylate, 15 wt. % Menthol, 11 wt. % Camphor, 1.5 wt. % Phenol, 18.5 wt. % Macadamia Nut Oil): Sparingly Soluble/Insoluble | DICLOFENAC SODIUM SOLUBILITY ([3]; Sample 7: 50 wt. % Methyl Salicylate, 15 wt. % Menthol, 11 wt. % Camphor, 1.5 wt. % Phenol, 18.5 wt. % Ethyl Alcohol, 2 wt. % Capsaicin): ^(10)Completely Soluble | DICLOFENAC SODIUM SOLUBILITY ([3]; Sample 8: 50 wt. % Methyl Salicylate, 15 wt. % Menthol, 11 wt. % Camphor, 1.5 wt. % Phenol, 10.5 wt. % Ethyl Alcohol, 2 wt. % Capsaicin): ^(10)Completely Soluble | effect of heating to ˜35° C. on solubility ([3]; mixtures where solubility was sparingly soluble to insoluble): did not have a significant impact

CC1CC[C@H](C(C)C)[C@@H](O)C1 (some centres unmarked) [(d)-menthol]
analgesic effect (pain threshold) (pain threshold): completely devoid of any analgesic effect

COC(=O)c1ccccc1O [Methyl Salicylate, Methyl salicylate]
Aqueous Soluble. [1]: sparingly

COc1cc(CNC(=O)CCCC/C=C/C(C)C)ccc1O [Capsaicin, N-(4-hydroxy-3-methoxybenzyl)-8-methylnon-trans-6-enamide]
Aqueous Soluble. [1]: insoluble | Oil Soluble [1]: soluble | solubility in alcohol, methyl salicylate, ether, benzene and chloroform [1]: freely soluble | solubility in water [1]: practically insoluble | reduction in nasal airway resistance (nasal airway resistance): 60% | effectiveness continued for (nasal airway resistance; in most patients): more than 4 months

CCCCCCCCC(=O)NCc1ccc(O)c(OC)c1 [Nonivamide, vanillylamide of n-nonanoic acid]
solubility levels in methyl salicylate [4]: exceeded 25 wt. % | precipitation from 30 wt. % solution in methyl salicylate ([4]; after 2 weeks of storage at 5° C.): no evidence of any precipitation | precipitation from 30 wt. % solution in methyl salicylate ([4]; powder added at ambient temperature, cooled to −10° C. for 10 hours): did not result in the precipitation

CC1CCC(C(C)C)C(O)C1 (centres unmarked) [Menthol]
blood flow remains reduced (blood flow; 10 minutes after application): ~20% | reduction of blood flow (blood flow; within 60 seconds of application): 35% | Oil Soluble [1]: soluble

CC(C)[C@@H]1CC[C@@H](C)C[C@H]1O [(l)-menthol]
analgesic effect (pain threshold) (pain threshold): able to increase pain threshold

CC12CCC(CC1=O)C2(C)C (centres unmarked) [Camphor]
Oil Soluble [1]: soluble

CCCNC(C)C(=O)Nc1ccccc1C (centres unmarked) [Prilocaine]
Aqueous Soluble. [1]: sparingly | Oil Soluble [1]: soluble

CCOC(=O)c1ccc(N)cc1 [Benzocaine]
Aqueous Soluble. [1]: sparingly | Oil Soluble [1]: Soluble
